Our source for the IC50 values is publication PMC11480511 (Scientific Reports, 2024).

Series [1] concerns A498 renal cancer cell line. The settings on record: read-out: In vitro cytotoxicity (IC50) A498 cell line (µM ± SEM), A498, MTT assay.
A further series relates to human melanoma LOX IMVI. As to conditions: read-out: In vitro cytotoxicity (IC50) LOX IMVI (µM ± SEM), MTT assay. On the technique in general: Formazan colour is commonly taken as a measure of viable cells.
A further series has as its target T1, topoisomerase IIβ (Homo sapiens, UniProt Q02880).
T1 construct: purchased
Kind of series: Topoisomerase II inhibition, human DNA topoisomerase Elisa kit. Type of series: biochemical. As to conditions: ± SEM; read-out: Topoisomerase II IC50 µM ± SEM. The method, then:
(§1) Two folds of serial dilution was accomplished after standards and the tested compounds were dissolved in sample diluent. Horseradish peroxidase (HRP-avidin) and biotin-conjugated antibody were diluted 10 times each. Each well received 100 µL of each concentration of the standard or test chemicals, which were then added and incubated at 37 °C for 60 min. […] The microtiter plate was rinsed three times and given room to aspirate. After that, the plate was incubated at 37 °C for 60 min with 100 µL of HRP-avidin solution added to each well. After that, the plate was aspirated and cleaned 5 times. Each well received 90 µL of TMB substrate, and the plate was incubated for 30 min. at 37 °C in a light-protected environment. Finally, stop solution (50 µL) was loaded, and within 5 min, the absorbance at 450 nm was measured spectrophotometrically.
(§2) Topoisomerase enzyme assay
(§3) Topoisomerase I and II inhibitory activity […]
(§4) topoisomerase IIβ inhibitory activity utilizing the human DNA topoisomerase Elisa kit.
(§5) Standards and the tested compound were dissolved in sample diluent and 2 folds serial dilution was achieved. Biotin-conjugated antibody and avidin conjugated Horseradish Peroxidase (HRP-avidin) were diluted to 10 folds. 100 μL of each concentration of standard or test compound were added to each well. Incubate at 37 °C for 1 h. The liquid in each well was removed. 10 0 μL of Biotin-conjugated antibody solution was added to each well followed by incubation for 1 h at 37 °C. The microtiter plate was allowed to aspirate and washed 3 times. 100 μL of avidin conjugated Horseradish Peroxidase (HRP -avidin) solution was added to each well and the plate was incubated for 1 h at 37 °C. The plate was aspirated and washed 5 times. 90 μL of TMB substrate were added to each well and the plate was incubated for 30 min at 37 °C and protected from light. 50 μL stop so lution was added. The absorbance was measured spectrophotometrically within 5 min at 450 nm .

The target in another series is T2, topoisomerase Iα (Homo sapiens, UniProt P11387).
T2 construct: purchased
T2 sequence (P11387 1-765): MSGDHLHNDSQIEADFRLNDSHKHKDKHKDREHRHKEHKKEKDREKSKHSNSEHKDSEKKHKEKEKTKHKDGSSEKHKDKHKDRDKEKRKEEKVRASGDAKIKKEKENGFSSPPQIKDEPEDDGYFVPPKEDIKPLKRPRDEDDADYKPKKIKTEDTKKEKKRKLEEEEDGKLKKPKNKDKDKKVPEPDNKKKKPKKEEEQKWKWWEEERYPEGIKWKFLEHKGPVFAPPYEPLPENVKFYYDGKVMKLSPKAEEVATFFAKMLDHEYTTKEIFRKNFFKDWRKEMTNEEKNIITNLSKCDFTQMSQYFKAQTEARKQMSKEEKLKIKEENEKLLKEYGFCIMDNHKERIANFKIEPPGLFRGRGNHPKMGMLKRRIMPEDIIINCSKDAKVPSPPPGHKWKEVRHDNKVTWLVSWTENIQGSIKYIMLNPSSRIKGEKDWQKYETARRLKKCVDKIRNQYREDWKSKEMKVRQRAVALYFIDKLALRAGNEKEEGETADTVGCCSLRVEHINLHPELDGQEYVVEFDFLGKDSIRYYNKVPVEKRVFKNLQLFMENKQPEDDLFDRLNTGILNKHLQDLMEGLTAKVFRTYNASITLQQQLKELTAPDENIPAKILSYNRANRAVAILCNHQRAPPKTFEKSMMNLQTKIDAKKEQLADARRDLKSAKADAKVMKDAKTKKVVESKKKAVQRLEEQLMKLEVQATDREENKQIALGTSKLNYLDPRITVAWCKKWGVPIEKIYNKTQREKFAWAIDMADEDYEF
The series can be described thus: Topoisomerase I inhibition, human DNA topoisomerase Elisa kit. It is filed as biochemical. As to conditions: ± SEM. As to the method:
as §1, §2, §3, §4, §5

SMILES strings stand for the structures.

T1 sequence (Q02880 whole entry): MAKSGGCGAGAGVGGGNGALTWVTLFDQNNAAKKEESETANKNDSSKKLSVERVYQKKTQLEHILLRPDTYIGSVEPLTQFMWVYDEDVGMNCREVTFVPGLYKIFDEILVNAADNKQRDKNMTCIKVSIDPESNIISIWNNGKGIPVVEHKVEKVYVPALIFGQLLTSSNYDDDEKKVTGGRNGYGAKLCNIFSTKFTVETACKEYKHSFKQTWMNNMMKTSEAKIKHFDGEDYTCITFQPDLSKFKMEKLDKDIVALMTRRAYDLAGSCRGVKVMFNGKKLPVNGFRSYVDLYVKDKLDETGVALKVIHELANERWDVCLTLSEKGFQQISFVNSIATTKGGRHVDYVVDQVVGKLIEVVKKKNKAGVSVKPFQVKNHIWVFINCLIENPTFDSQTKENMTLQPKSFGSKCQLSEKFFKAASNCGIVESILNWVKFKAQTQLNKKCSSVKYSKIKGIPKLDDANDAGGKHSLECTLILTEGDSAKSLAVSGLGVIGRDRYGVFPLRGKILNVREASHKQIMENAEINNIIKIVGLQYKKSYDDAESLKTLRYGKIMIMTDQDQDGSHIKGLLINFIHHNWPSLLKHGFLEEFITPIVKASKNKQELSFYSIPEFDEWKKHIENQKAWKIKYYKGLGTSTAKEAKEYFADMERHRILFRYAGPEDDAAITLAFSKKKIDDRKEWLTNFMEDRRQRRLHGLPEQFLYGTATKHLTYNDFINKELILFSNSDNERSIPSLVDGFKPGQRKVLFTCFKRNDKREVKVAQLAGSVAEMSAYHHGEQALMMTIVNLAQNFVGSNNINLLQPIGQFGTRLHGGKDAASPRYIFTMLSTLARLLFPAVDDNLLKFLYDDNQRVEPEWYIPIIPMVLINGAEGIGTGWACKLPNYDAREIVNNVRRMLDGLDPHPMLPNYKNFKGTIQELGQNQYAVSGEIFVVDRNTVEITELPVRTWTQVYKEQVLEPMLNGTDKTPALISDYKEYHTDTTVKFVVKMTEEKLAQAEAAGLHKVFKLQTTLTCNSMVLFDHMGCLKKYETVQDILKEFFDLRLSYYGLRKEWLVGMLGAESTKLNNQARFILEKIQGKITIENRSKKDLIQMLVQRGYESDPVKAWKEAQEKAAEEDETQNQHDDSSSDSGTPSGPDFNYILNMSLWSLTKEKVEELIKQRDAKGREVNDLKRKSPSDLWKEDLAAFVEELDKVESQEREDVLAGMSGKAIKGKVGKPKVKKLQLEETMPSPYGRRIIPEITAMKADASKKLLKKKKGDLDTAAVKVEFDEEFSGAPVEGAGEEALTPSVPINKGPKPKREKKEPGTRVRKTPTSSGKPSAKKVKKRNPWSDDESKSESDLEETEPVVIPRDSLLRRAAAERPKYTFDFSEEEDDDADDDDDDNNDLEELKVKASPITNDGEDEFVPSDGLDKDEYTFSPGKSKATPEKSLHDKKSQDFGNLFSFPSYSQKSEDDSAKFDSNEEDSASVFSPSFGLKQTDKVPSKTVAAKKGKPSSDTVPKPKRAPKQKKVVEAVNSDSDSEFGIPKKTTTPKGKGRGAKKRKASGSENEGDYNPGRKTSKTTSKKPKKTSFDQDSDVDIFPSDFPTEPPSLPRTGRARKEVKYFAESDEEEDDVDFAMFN

On to `N.N.[Cl][Pt][Cl]` [Cisplatin, reference compound], for which the IC50 (usually the point on the concentration scale where inhibition reaches its midpoint) in series [1] amounted to 7.92 ± 0.45 µM; with human melanoma LOX IMVI, 5.07 ± 0.29 µM; on topoisomerase IIβ, 11.3 ± 0.62 µM; against topoisomerase Iα it was 5.71 ± 0.31 µM.
